Data as given in US20240116985A1, “STAPLED PEPTIDES AND METHODS THEREOF” (priority 2020, published 2024).
Like-named read-outs stand apart in the source and are kept apart here.

Key:
[1] = biological target: T1, full-length beta-Catenin (Uniprot ID P35222) (Homo sapiens, UniProt P35222); assay: Fluorescence polarization IC50 (beta-catenin / 5FAM-TCF4 10-53 competition); assay type: binding; conditions: fluorescence polarization; read-out: beta-Catenin FP IC50
T1 construct: 10 nM full-length beta-Catenin (Uniprot ID P35222)
T1 sequence (P35222 1-781): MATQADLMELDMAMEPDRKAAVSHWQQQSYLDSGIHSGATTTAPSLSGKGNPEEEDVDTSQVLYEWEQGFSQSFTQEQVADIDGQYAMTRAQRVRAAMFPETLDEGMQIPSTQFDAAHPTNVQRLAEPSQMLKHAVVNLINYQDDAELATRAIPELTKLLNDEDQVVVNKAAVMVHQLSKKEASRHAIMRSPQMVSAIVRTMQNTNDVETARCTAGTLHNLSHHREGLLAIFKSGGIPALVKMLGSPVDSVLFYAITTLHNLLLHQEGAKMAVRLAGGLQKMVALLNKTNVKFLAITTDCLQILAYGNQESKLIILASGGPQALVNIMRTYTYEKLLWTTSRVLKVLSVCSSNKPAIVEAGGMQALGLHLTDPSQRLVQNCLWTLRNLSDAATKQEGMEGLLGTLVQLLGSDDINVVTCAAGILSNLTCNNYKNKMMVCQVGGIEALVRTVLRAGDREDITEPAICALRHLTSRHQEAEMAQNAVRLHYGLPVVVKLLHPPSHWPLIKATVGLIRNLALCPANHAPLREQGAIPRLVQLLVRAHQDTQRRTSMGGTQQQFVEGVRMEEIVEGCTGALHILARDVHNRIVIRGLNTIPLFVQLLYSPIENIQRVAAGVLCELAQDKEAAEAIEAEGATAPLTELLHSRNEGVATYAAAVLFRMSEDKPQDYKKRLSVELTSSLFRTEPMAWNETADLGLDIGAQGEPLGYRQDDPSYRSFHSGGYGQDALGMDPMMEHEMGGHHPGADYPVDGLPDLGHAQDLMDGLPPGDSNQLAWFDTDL

[2] = biological target: T2, beta-catenin/TCF4 engagement (Homo sapiens, UniProt P35222); assay: Nano-BRET target engagement assay (B-cat-Halo & TCF4-Luc in HEK293 cells); assay type: cell-based; conditions: read-out: NanoBRET Abs IC50
T2 construct: expressed in transfected cells; host or cells: HEK293
T2 sequence (P35222 1-781): T1 sequence (P35222 1-781)

Row | Structure (SMILES) | IC50 [1] [nM] | IC50 ([2]; absolute IC50) [nM] | IC50 [2] [nM]
1 | CC(=O)N1CCC[C@]12CC=CCCCC1(CCCC=CCCCOC(=O)N3CC[C@@](C(=O)N[C@@H](Cc4ccsc4)C(=O)N[C@@H](Cc4csc5ccccc45)C(=O)N[C@@H](CCC(N)=O)C(N)=O)(C3)NC(=O)[C@H](CCCNC(=N)N)NC(=O)[C@H](Cc3ccccc3)NC(=O)[C@H](C)NC(=O)C(C)(C)NC(=O)[C@H]([C@@H](C)O)NC(=O)[C@H](CC(N)=O)NC1=O)NC(=O)[C@H](CC(C)(C)C)NC(=O)[C@H](CC(=O)O)NC2=O (stereo partly drawn) [I-2407, Ac-PL3-Asp-Npg-B5-Asn-Thr-Aib-Ala-Phe-Arg-PyrS2-3Thi-BztA-Gln-NH2] | 138 | > 20000 | –
2 | CC(=O)N1CCC[C@]12CC=CCCCC1(CCCC=CCCCCCC[C@@](C)(C(=O)N[C@@H](Cc3ccccc3)C(=O)N[C@@H](Cc3csc4ccccc34)C(=O)N[C@@H](CCC(N)=O)C(N)=O)NC(=O)[C@H](CCC(N)=O)NC(=O)[C@H](Cc3ccccc3)NC(=O)[C@H](C)NC(=O)[C@H](C)NC(=O)[C@H](CCC(=O)O)NC(=O)[C@H](CC(=O)O)NC1=O)NC(=O)[C@H](CO)NC(=O)[C@H](CC(=O)O)NC2=O (stereo partly drawn) [I-1526, Ac-PL3-Asp-Ser-B5-Asp-Glu-Ala-Ala-Phe-Gln-S8-Phe-BztA-Gln-NH2] | 84 | > 20000 | –
3 | CC(=O)N1CCC[C@]12CC=CCCCC1(CCCC=CCCCOC(=O)N3CC[C@@](C(=O)N[C@@H](Cc4ccc(F)cc4)C(=O)N[C@@H](Cc4csc5ccccc45)C(=O)N[C@@H](C)C(N)=O)(C3)NC(=O)[C@H](CC(C)C)NC(=O)[C@H](Cc3ccccc3)NC(=O)[C@H](C)NC(=O)[C@H](C)NC(=O)[C@H](Cc3cccc(C(=O)O)c3)NC(=O)[C@H](CC(=O)O)NC1=O)NC(=O)[C@H](CC(C)(C)C)NC(=O)[C@H](CC(=O)O)NC2=O (stereo partly drawn) [I-2263, Ac-PL3-Asp-Npg-B5-Asp-3COOHF-Ala-Ala-Phe-Leu-PyrS2-4FF-BztA-Ala-NH2] | 47 | 4300 | –
4 | CC(=O)N1CCC[C@]12CC=CCCCC1(CCCC=CCCCOC(=O)N3CC[C@@](C(=O)N[C@@H](Cc4ccsc4)C(=O)N[C@@H](Cc4csc5ccccc45)C(=O)N[C@@H](CCC(N)=O)C(N)=O)(C3)NC(=O)[C@H](CCCN3CCOCC3)NC(=O)[C@H](Cc3ccccc3)NC(=O)[C@H](C)NC(=O)[C@H](C)NC(=O)[C@H](CC(=O)O)NC(=O)[C@H](CC(=O)O)NC1=O)NC(=O)[C@H](CC(C)(C)C)NC(=O)[C@H](CC(=O)O)NC2=O (stereo partly drawn) [I-1485, Ac-PL3-Asp-Npg-B5-Asp-Asp-Ala-Ala-Phe-MorphNva-PyrS2-3Thi-BztA-Gln-NH2] | 7 | 25800 | –
5 | CC(=O)N1CCC[C@]12CC=CCCCC1(CCCC=CCCCOC(=O)N3CC[C@@](C(=O)N[C@@H](Cc4ccccc4C(F)(F)F)C(=O)N[C@@H](Cc4csc5ccccc45)C(=O)N[C@@H](CCC(=O)N(C)C)C(N)=O)(C3)NC(=O)[C@H](CCC(=O)N3CCOCC3)NC(=O)[C@H](Cc3ccccc3)NC(=O)[C@H](C)NC(=O)[C@H](C)NC(=O)[C@H](Cc3cccc(C(=O)O)c3)NC(=O)[C@H](CC(=O)O)NC1=O)NC(=O)[C@H](CC(C)(C)C)NC(=O)[C@H](CC(=O)O)NC2=O (stereo partly drawn) [I-2537, Ac-PL3-Asp-Npg-B5-Asp-3COOHF-Ala-Ala-Phe-MorphGln-PyrS2-2F3MeF-BztA-Me2Gln-NH2] | 11 | 2900 | –
6 | CC(=O)N1CCC[C@]12CC=CCCCC1(CCCC=CCCCOC(=O)N3CC[C@@](C(=O)N[C@@H](Cc4ccsc4)C(=O)N[C@@H](Cc4csc5ccccc45)C(=O)N[C@@H](CCC(N)=O)C(N)=O)(C3)NC(=O)[C@H](CC(C)C)NC(=O)[C@H](Cc3ccccc3)NC(=O)[C@H](C)NC(=O)[C@H](C)NC(=O)[C@H](CC(N)=O)NC(=O)[C@H](CC(N)=O)NC1=O)NC(=O)[C@H](CC(C)(C)C)NC(=O)[C@H](CC(=O)O)NC2=O (stereo partly drawn) [I-1557, Ac-PL3-Asp-Npg-B5-Asn-Asn-Ala-Ala-Phe-Leu-PyrS2-3Thi-BztA-Gln-NH2] | 342 | > 20000 | –
7 | CC(=O)N1CCC[C@]12CC=CCCCC1(CCCC=CCCCOC(=O)N3CC[C@@](C(=O)N[C@@H](Cc4ccsc4)C(=O)N[C@@H](Cc4ccc(Cl)cc4)C(=O)N[C@@H](CCC(N)=O)C(N)=O)(C3)NC(=O)[C@H](CC(C)C)NC(=O)[C@H](Cc3ccccc3)NC(=O)[C@H](C)NC(=O)[C@H](C)NC(=O)[C@H](Cc3cccc(C(=O)O)c3)NC(=O)[C@H](CC(=O)O)NC1=O)NC(=O)[C@H](CC(C)(C)C)NC(=O)[C@H](CC(=O)O)NC2=O (stereo partly drawn) [I-2220, Ac-PL3-Asp-Npg-B5-Asp-3COOHF-Ala-Ala-Phe-Leu-PyrS2-3Thi-4C1F-Gln-NH2] | 12 | 16300 | –
8 | CC(=O)N1CCC[C@]12CC=CCCCC1(CCCC=CCCCOC(=O)N3CC[C@@](C(=O)N[C@@H](Cc4ccsc4)C(=O)N[C@@H](Cc4csc5ccccc45)C(=O)N[C@@H](CC(N)=O)C(=O)N[C@@H](C)C(=O)N[C@@H](C)C(=O)N[C@@H](C)C(N)=O)(C3)NC(=O)[C@H](CC(C)C)NC(=O)[C@H](Cc3ccccc3)NC(=O)[C@H](C)NC(=O)[C@H](C)NC(=O)[C@H](Cc3cccc(C(=O)O)c3)NC(=O)[C@H](CC(=O)O)NC1=O)NC(=O)[C@H](CC(C)(C)C)NC(=O)[C@H](CC(=O)O)NC2=O (stereo partly drawn) [I-2046, Ac-PL3-Asp-Npg-B5-Asp-3COOHF-Ala-Ala-Phe-Leu-PyrS2-3Thi-BztA-Asn-Ala-Ala-Ala-NH2] | 12 | – | 2900
9 | CC(=O)N1CCC[C@]12CC=CCCCC1(CCCC=CCCCOC(=O)N3CC[C@@](C(=O)N[C@@H](Cc4ccccc4C(F)(F)F)C(=O)N[C@@H](Cc4csc5ccccc45)C(=O)N[C@@H](CO)C(N)=O)(C3)NC(=O)[C@H](CC(C)C)NC(=O)[C@H](Cc3ccccc3)NC(=O)[C@H](C)NC(=O)[C@H](C)NC(=O)[C@H](Cc3ccccc3C(=O)O)NC(=O)[C@H](CC(=O)O)NC1=O)NC(=O)[C@H](CC(C)(C)C)NC(=O)[C@H](CC(=O)O)NC2=O (single isomer, unassigned) [I-1661, Ac-PL3-Asp-Npg-B5-Asp-2COOHF-Ala-Ala-Phe-Leu-PyrS2-2F3MeF-BztA-Ser-NH2] | 70 | 8300 | –
10 | CC(=O)N1CCC[C@]12CC=CCCCC1(CCCC=CCCCOC(=O)N3CC[C@@](C(=O)N[C@@H](Cc4ccsc4)C(=O)N[C@@H](Cc4csc5ccccc45)C(=O)N[C@@H](CC(N)=O)C(N)=O)(C3)NC(=O)[C@H](CC(=O)N(C)C)NC(=O)[C@H](Cc3ccccc3)NC(=O)[C@H](C)NC(=O)C(C)(C)NC(=O)[C@H]([C@@H](C)O)NC(=O)[C@H](CC(N)=O)NC1=O)NC(=O)[C@H](CC(C)(C)C)NC(=O)[C@H](CC(=O)O)NC2=O (stereo partly drawn) [I-2496, Ac-PL3-Asp-Npg-B5-Asn-Thr-Aib-Ala-Phe-Me2Asn-PyrS2-3Thi-BztA-Asn-NH2] | 106 | > 20000 | –
11 | CC(=O)N1CCC[C@]12CC=CCCCC1(CCCC=CCCCOC(=O)N3CC[C@@](C(=O)N[C@@H](CC4CCC4)C(=O)N[C@@H](Cc4csc5ccccc45)C(=O)N[C@@H](CO)C(N)=O)(C3)NC(=O)[C@H](CC(C)C)NC(=O)[C@H](Cc3ccccc3)NC(=O)[C@H](C)NC(=O)[C@H](C)NC(=O)[C@H](Cc3cccc(C(=O)O)c3)NC(=O)[C@H](CC(=O)O)NC1=O)NC(=O)[C@H](CC(C)(C)C)NC(=O)[C@H](CC(=O)O)NC2=O (stereo partly drawn) [I-1898, Ac-PL3-Asp-Npg-B5-Asp-3COOHF-Ala-Ala-Phe-Leu-PyrS2-Cba-BztA-Ser-NH2] | 22 | – | 10900
12 | CC(=O)N1CCC[C@]12CC=CCCCC1(CCCC=CCCCOC(=O)N3CC[C@@](C(=O)N[C@@H](Cc4ccsc4)C(=O)N[C@@H](Cc4csc5ccccc45)C(=O)N[C@@H](CC(N)=O)C(N)=O)(C3)NC(=O)[C@H](CO)NC(=O)[C@H](Cc3ccccc3)NC(=O)[C@H](C)NC(=O)[C@H](C)NC(=O)[C@H](Cc3cccc(C(=O)O)c3)NC(=O)[C@H](CC(=O)O)NC1=O)NC(=O)[C@H](CC(C)(C)C)NC(=O)[C@H](CC(=O)O)NC2=O (stereo partly drawn) [I-2045, Ac-PL3-Asp-Npg-B5-Asp-3COOHF-Ala-Ala-Phe-Ser-PyrS2-3Thi-BztA-Asn-NH2] | 5 | – | 13500
13 | CCCC[C@@H]1NC(=O)[C@H](Cc2cccc(C(=O)O)c2)NC(=O)[C@H](CC(=O)O)NC(=O)C2(CCCC=CCCCOC(=O)N3CC[C@@](C(=O)N[C@@H](Cc4ccsc4)C(=O)N[C@@H](Cc4csc5ccccc45)C(=O)N[C@H](C(N)=O)C(C)C)(C3)NC(=O)[C@H](CC(C)C)NC(=O)[C@H](Cc3ccccc3)NC(=O)[C@H](C)NC1=O)CCCC=CC[C@]1(CCCN1C(C)=O)C(=O)N[C@@H](CC(=O)O)C(=O)N[C@@H](CC(C)(C)C)C(=O)N2 (stereo partly drawn) [I-2189, Ac-PL3-Asp-Npg-B5-Asp-3COOHF-nLeu-Ala-Phe-Leu-PyrS2-3Thi-BztA-Val-NH2] | 83 | – | 33400
